Results taken from US9187464B2, “TRPV4 antagonists” (GlaxoSmithKline Intellectual Property (No. 2) Limited, priority 2011, dated 2015).
pIC50: −log10 of the molar value.

Biological target: T1, human TRPV4 (Homo sapiens, UniProt Q9HBA0)
T1 construct: expressed in transfected cells; host or cells: HEK-293-MSR-II cells transduced with 1% BacMam virus
Test: Ligand-gated assay (Fluo4 calcium, FLIPR; inhibition of agonist-induced activation)
Format: cell-based
Conditions: HEK-293-MSR-II cells transduced with BacMam human TRPV4; agonist at EC80
Protocol: TRP channel activation/opening results in an influx of divalent and monovalent cations including calcium. The resulting changes in intracellular calcium were monitored using a calcium selective fluorescent dye Fluo4 (MDS Analytical Technologies). Dye loaded cells were initially exposed to test compound to verify a lack of agonist activity. Cells were subsequently activated by addition of an agonist and inhibition of the agonist-induced activation was recorded. Human embryonic kidney 293 cells stably expressing the macrophage scavenger receptor class II (HEK-293-MSR-II) and transduced with 1% BacMam (J. P. Condreay, S. M. Witherspoon, W. C. Clay and T. A. Kost, Proc Natl Acad Sci 96 (1999), pp. 127-132) virus expressing the human TRPV4 gene were plated at 15000 cells/well in a volume of 50 μL in a 384 well poly-D lysine coated plate. Cells were incubated for 24 hours at 37 degrees and 5% CO2. Media was then aspirated using a Tecan Plate-washer and replaced with 20 μL of dye loading buffer: HBSS, 500 uM Brilliant Black (MDS Analytical Technologies), 2 uM Fluo-4. Dye loaded plates were then incubated in the dark at room temperature for 1-1.5 hours. 10 μL of test compound diluted in HBSS (HBSS with 1.5 mM Calcium Chloride, 1.5 mM Magnesium Chloride and 10 mM HEPES. pH 7.4), +0.01% Chaps was added to the plate, incubated for 10 min at room temperature in the dark and then 10 μL of agonist was added at a final concentration equal to the agonist EC80. Calcium release was measured using the FLIPRtetra (MDS Analytical Technologies) or FLIPR384 (MDS Analytical Technologies).
IC50 between 0.1-10 nM (+++), >10-50 nM (++), >50-500 nM (+).

T1 sequence (Q9HBA0 whole entry): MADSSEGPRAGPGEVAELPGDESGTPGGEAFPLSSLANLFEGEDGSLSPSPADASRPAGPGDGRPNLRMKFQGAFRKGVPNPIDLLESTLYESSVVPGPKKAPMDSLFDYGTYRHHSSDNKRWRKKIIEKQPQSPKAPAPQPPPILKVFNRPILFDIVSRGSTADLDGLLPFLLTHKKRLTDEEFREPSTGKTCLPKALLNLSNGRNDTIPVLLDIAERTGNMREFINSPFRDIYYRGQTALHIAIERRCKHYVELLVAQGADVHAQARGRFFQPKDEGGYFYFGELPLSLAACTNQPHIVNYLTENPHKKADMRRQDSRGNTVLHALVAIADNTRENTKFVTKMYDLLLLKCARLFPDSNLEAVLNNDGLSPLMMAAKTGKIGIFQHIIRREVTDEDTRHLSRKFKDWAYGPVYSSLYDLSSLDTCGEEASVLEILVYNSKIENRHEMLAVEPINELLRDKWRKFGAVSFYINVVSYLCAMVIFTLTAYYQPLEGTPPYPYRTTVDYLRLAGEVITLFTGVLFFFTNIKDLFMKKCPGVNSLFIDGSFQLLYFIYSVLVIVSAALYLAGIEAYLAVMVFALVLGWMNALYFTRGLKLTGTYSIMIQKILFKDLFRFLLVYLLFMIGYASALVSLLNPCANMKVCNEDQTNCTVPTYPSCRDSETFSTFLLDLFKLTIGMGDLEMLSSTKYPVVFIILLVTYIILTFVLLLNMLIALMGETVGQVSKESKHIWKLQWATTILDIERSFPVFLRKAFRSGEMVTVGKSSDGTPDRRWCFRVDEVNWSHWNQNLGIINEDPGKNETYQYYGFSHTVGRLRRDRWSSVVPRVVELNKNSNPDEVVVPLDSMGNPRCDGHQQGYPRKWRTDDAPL

Structure (SMILES)	pIC50
Cc1cnc(N2C[C@@]3(CCC[C@](C)(Cn4cnc5ccc(C#N)cc54)C3)OC2=O)c(C)n1 [Example 130, 1-(((5S,7S)-3-(3,5-dimethylpyrazin-2-yl)-7-methyl-2-oxo-1-oxa-3-azaspiro[4.5]decan-7-yl)methyl)-1H-benzo[d]imidazole-6-carbonitrile]	6.30 to 7.30
COc1ncccc1N1C[C@@]2(CCC[C@](C)(Cn3cnc4ccc(C#N)cc43)C2)OC1=O [Example 109, 1-[{(5S,7S)-7-methyl-3-[2-(methyloxy)-3-pyridinyl]-2-oxo-1-oxa-3-azaspiro[4.5]dec-7-yl}methyl]-1H-benzimidazole-6-carbonitrile]	6.30 to 7.30
CC(C)(C)c1cnc(N2C[C@@]3(CCC[C@](C)(Cn4cnc5ccc(C#N)cc54)C3)OC2=O)cn1 [Example 53, 1-(((5S,7S)-3-(5-(tert-butyl)pyrazin-2-yl)-7-methyl-2-oxo-1-oxa-3-azaspiro[4.5]decan-7-yl)methyl)-1H-benzo[d]imidazole-6-carbonitrile]	8.00 to 10.00
N#Cc1ccc2ncn(C[C@H]3CCC[C@]4(C3)CN(Cc3cn(-c5ccccc5)nn3)C(=O)O4)c2c1 [Example 87, 1-({(5S,7S)-2-oxo-3-[(1-phenyl-1H-1,2,3-triazol-4-yl)methyl]-1-oxa-3-azaspiro[4.5]dec-7-yl}methyl]-1H-benzimidazole-6-carbonitrile]	7.30 to 8.00
CCOc1ccc(N2C[C@@]3(CCC[C@](C)(Cn4cnc5ccc(C#N)cc54)C3)OC2=O)nn1 [Example 136, 1-({(5S,7S)-3-[6-(ethyloxy)-3-pyridazinyl]-7-methyl-2-oxo-1-oxa-3-azaspiro[4.5]dec-7-yl}methyl)-1H-benzimidazole-6-carbonitrile]	6.30 to 7.30
COCc1noc(C(C)(C)CN2C[C@@]3(CCC[C@H](Cn4cnc5ccc(C#N)cc54)C3)OC2=O)n1 [Example 81, 1-{[(5S,7S)-3-(2-methyl-2-{3-[(methyloxy)methyl]-1,2,4-oxadiazol-5-yl}propyl)-2-oxo-1-oxa-3-azaspiro[4.5]dec-7-yl]methyl}-1H-benzimidazole-6-carbonitrile]	8.00 to 10.00
COc1cc(OC)c(N2C[C@@]3(CCC[C@H](Cn4cnc5ccc(C#N)cc54)C3)OC2=O)cn1 [Example 141, 1-({(5S,7S)-3-[4,6-bis(methyloxy)-3-pyridinyl]-2-oxo-1-oxa-3-azaspiro[4.5]dec-7-yl}methyl)-1H-benzimidazole-6-carbonitrile]	7.30 to 8.00
Cc1cccc(-n2cc(CN3C[C@@]4(CCC[C@H](Cn5cnc6ccc(C#N)cc65)C4)OC3=O)nn2)c1 [Example 96, 1-[((5S,7S)-3-{[1-(3-methylphenyl)-1H-1,2,3-triazol-4-yl]methyl}-2-oxo-1-oxa-3-azaspiro[4.5]dec-7-yl)methyl]-1H-benzimidazole-6-carbonitrile]	7.30 to 8.00
C[C@]1(Cn2cnc3ccc(C#N)cc32)CCC[C@@]2(CN(c3ccc(C(F)(F)F)nc3)C(=O)O2)C1 [Example 139, 1-({(5S,7S)-7-methyl-2-oxo-3-[6-(trifluoromethyl)-3-pyridinyl]-1-oxa-3-azaspiro[4.5]dec-7-yl}methyl)-1H-benzimidazole-6-carbonitrile]	8.00 to 10.00
CN(C)c1ccc(N2C[C@@]3(CCC[C@](C)(Cn4cnc5ccc(C#N)cc54)C3)OC2=O)cn1 [Example 19, 1-(((5S,7S)-3-(6-(Dimethylamino)pyridin-3-yl)-7-methyl-2-oxo-1-oxa-3-azaspiro[4.5]decan-7-yl)methyl)-1H-benzo[d]imidazole-6-carbonitrile]	8.00 to 10.00
N#Cc1ccc2ncn(C[C@H]3CCC[C@]4(C3)CN(Cc3cccc(-c5ccccc5)n3)C(=O)O4)c2c1 [Example 64, 1-({(5S,7S)-2-oxo-3-[(6-phenyl-2-pyridinyl)methyl]-1-oxa-3-azaspiro[4.5]dec-7-yl}methyl)-1H-benzimidazole-6-carbonitrile]	8.00 to 10.00
CCOc1cnc(N2C[C@@]3(CCC[C@](C)(Cn4cnc5ccc(C#N)cc54)C3)OC2=O)cn1 [Example 14, 1-(((5S,7S)-3-(5-Ethoxypyrazin-2-yl)-7-methyl-2-oxo-1-oxa-3-azaspiro[4.5]decan-7-yl)methyl)-1H-benzo[d]imidazole-6-carbonitrile]	8.00 to 10.00
CC(C)(C)c1cnc(N2C[C@@]3(CCC[C@](C)(Cn4cnc5ccc(C#N)cc54)C3)OC2=O)nc1 [Example 49, 1-(((5S,7S)-3-(5-(tert-butyl)pyrimidin-2-yl)-7-methyl-2-oxo-1-oxa-3-azaspiro[4.5]decan-7-yl)methyl)-1H-benzo[d]imidazole-6-carbonitrile]	8.00 to 10.00
N#Cc1ccc2ncn(C[C@H]3CCC[C@]4(C3)CN(Cc3csc(-c5ccccc5)n3)C(=O)O4)c2c1 [Example 63, 1-({(5S,7S)-2-oxo-3-[(2-phenyl-1,3-thiazol-4-yl)methyl]-1-oxa-3-azaspiro[4.5]dec-7-yl}methyl)-1H-benzimidazole-6-carbonitrile]	7.30 to 8.00
Cn1nc(C(C)(C)C)cc1N1C[C@@]2(CCC[C@](C)(Cn3cnc4ccc(C#N)cc43)C2)OC1=O [Example 36, 1-({(5S,7S)-3-[3-(1,1-dimethylethyl)-1-methyl-1H-pyrazol-5-yl]-7-methyl-2-oxo-1-oxa-3-azaspiro[4.5]dec-7-yl}methyl)-1H-benzimidazole-6-carbonitrile]	6.30 to 7.30
CCc1cccnc1N1C[C@@]2(CCC[C@](C)(Cn3cnc4ccc(C#N)cc43)C2)OC1=O [Example 129, 1-(((5S,7S)-3-(3-ethylpyridin-2-yl)-7-methyl-2-oxo-1-oxa-3-azaspiro[4.5]decan-7-yl)methyl)-1H-benzo[d]imidazole-6-carbonitrile]	7.30 to 8.00
Cc1noc(N2C[C@@]3(CCC[C@](C)(Cn4cnc5ccc(C#N)cc54)C3)OC2=O)c1C [Example 57, 1-(((5S,7S)-3-(3,4-Dimethylisoxazol-5-yl)-7-methyl-2-oxo-1-oxa-3-azaspiro[4.5]decan-7-yl)methyl)-1H-benzo[d]imidazole-6-carbonitrile]	8.00 to 10.00
CCOc1ncc(N2C[C@@]3(CCC[C@](C)(Cn4cnc5ccc(C#N)cc54)C3)OC2=O)cn1 [Example 113, 1-(((5S,7S)-3-(2-ethoxypyrimidin-5-yl)-7-methyl-2-oxo-1-oxa-3-azaspiro[4.5]decan-7-yl)methyl)-1H-benzo[d]imidazole-6-carbonitrile]	7.30 to 8.00
N#Cc1ccc2ncn(C[C@H]3CCC[C@]4(C3)CN(Cc3cn(-c5ccc(Cl)cc5)nn3)C(=O)O4)c2c1 [Example 89]	7.30 to 8.00
N#Cc1ccc2ncn(C[C@H]3CCC[C@]4(C3)CN(Cc3cc(-c5ccc(Cl)cc5)no3)C(=O)O4)c2c1 [Example 67, 1-[((5S,7S)-3-{[3-(4-chlorophenyl)-5-isoxazolyl]methyl}-2-oxo-1-oxa-3-azaspiro[4.5]dec-7-yl)methyl]-1H-benzimidazole-6-carbonitrile]	7.30 to 8.00
CC(C)(CN1C[C@@]2(CCC[C@H](Cn3cnc4ccc(C#N)cc43)C2)OC1=O)c1nc(-c2cncnc2)no1 [Example 78, 1-[((5S,7S)-3-{2-methyl-2-[3-(5-pyrimidinyl)-1,2,4-oxadiazol-5-yl]propyl}-2-oxo-1-oxa-3-azaspiro[4.5]dec-7-yl)methyl]-1H-benzimidazole-6-carbonitrile]	8.00 to 10.00
CC(C)Cc1cc(N2C[C@@]3(CCC[C@](C)(Cn4cnc5ccc(C#N)cc54)C3)OC2=O)on1 [Example 31, 1-({(5S,7S)-7-methyl-3-[3-(2-methylpropyl)-5-isoxazolyl]-2-oxo-1-oxa-3-azaspiro[4.5]dec-7-yl}methyl)-1H-benzimidazole-6-carbonitrile]	8.00 to 10.00
CC(C)(CN1C[C@@]2(CCC[C@H](Cn3cnc4ccc(C#N)cc43)C2)OC1=O)c1nc(-c2ccccc2)no1 [Example 75, 1-({(5S,7S)-3-[2-methyl-2-(3-phenyl-1,2,4-oxadiazol-5-yl)propyl]-2-oxo-1-oxa-3-azaspiro[4.5]dec-7-yl}methyl)-1H-benzimidazole-6-carbonitrile]	8.00 to 10.00
CC(C)(C)n1cc(N2C[C@@]3(CCC[C@](C)(Cn4cnc5ccc(C#N)cc54)C3)OC2=O)cn1 [Example 43, 1-(((5S,7S)-3-(1-(tert-butyl)-1H-pyrazol-4-yl)-7-methyl-2-oxo-1-oxa-3-azaspiro[4.5]decan-7-yl)methyl)-1H-benzo[d]imidazole-6-carbonitrile]	7.30 to 8.00
COc1ccc(N2C[C@@]3(CCC[C@](C)(Cn4cnc5ccc(C#N)cc54)C3)OC2=O)cn1 [Example 13]	8.00 to 10.00
C[C@]1(Cn2cnc3ccc(C#N)cc32)CCC[C@@]2(CN(c3cc(C4(C#N)CC4)no3)C(=O)O2)C1 [Example 38, 1-({(5S,7S)-3-[3-(1-cyanocyclopropyl)-5-isoxazolyl]-7-methyl-2-oxo-1-oxa-3-azaspiro[4.5]dec-7-yl}methyl)-1H-benzimidazole-6-carbonitrile]	7.30 to 8.00
CC(C)(CN1C[C@@]2(CCC[C@H](Cn3cnc4c(Cl)cc(C#N)cc43)C2)OC1=O)c1nc(-c2ccccc2)no1 [Example 73, 4-chloro-1-({(5S,7S)-3-[2-methyl-2-(3-phenyl-1,2,4-oxadiazol-5-yl)propyl]-2-oxo-1-oxa-3-azaspiro[4.5]dec-7-yl}methyl)-1H-benzimidazole-6-carbonitrile]	8.00 to 10.00
